Assay results: patent US20080176787A1, “Parathyroid hormone analogues and methods of use” (priority 2005, published 2008)
Positions of bridges follow the written chain, without caps; N, C: chain ends. Residues, ends and D or L forms follow the SMILES beside them.

Experiments:
[1] = system: gonad-intact cynomolgus monkeys; assay: 52-week (12 months) daily subcutaneous study in gonad-intact young cynomolgus monkeys: bone mass, histomorphometry, % cortical porosity; format: in vivo
Method: The peptide [Leu^27]cyclo[Glu^22-Lys^26]-hPTH-(1-31)-NH2 Ostabolin-C™ was administered daily by subcutaneous injection to gonad-intact cynomolgus monkeys (4/sex/group) at dose levels of 0, 2, 10 and 25 μg/kg for 52 weeks. Monkeys were 30 to 40 months of age (2.3-3.5 kg) at treatment start. Tibiae were retained for histomorphometry following labeling with calcein green 15 and 5 days prior to euthanasia. Bone mass, as measured by DXA (dual-energy x-ray absorptiometry) and QCT (quantitative computed tomography), was increased at the lumbar spine, femur and tibia. Changes in vertebral BMD (bone mineral density) translated into significant increases in bone strength. […] Tibial cancellous bone volume increased by more than 50% in all the peptide [Leu^27]cyclo[Glu^22-Lys^26]-hPTH-(1-31)-NH2 treated groups compared to controls and in the tibial mid-diaphysis, increases in cortical width and relative cortical area with concurrent decreases in medullary area were observed. […] Increases in indices of bone formation were associated with decreases in indices of bone resorption (decreased bone resorption markers, decreased osteoclast surface area, minimal cortical porosity), consistent with the uncoupling of these events. This combination of anabolic and anti-catabolic actions may have significant therapeutic value in the treatment of osteoporosis.
Comparative data regarding increase in cortical bone porosity in monkey subjects using Ostabolin C at a variety of doses and using the prior art PTHs 1-34 is shown below.

[2] = system: post-menopausal women with low bone mineral density; assay: Dose/weight cutoff subgroup analysis and modeling of Phase II 30 and 45 μg cohorts; format: in vivo, human; design: Mean LS-BMD / FN-BMD / TH-BMD / P1NP / CTx: unit not given here
Method: The effect of the dose optimization strategy was evaluated by performing subgroup analyses using actual data from the 30 and 45 μg cohorts of the study (i.e. creation of a new subgroup by combining all patients below the weight cutoff from the 30 μg dose group with all patients above the weight cutoff from the 45 μg dose group, shown in the table below).
A variety of new subgroups were created out of the patients who participated in the Phase II clinical trial. The groups from Phase II are shown above, where each group received a single dose, either 7.5 μg, 15 μg, 30 μg, 45 μg, or placebo. The 30 μg and 45 μg dose groups were re-grouped, according to the weight of the patient, and over 100 new sub-groups were created. This approach of creating new sub-groups out of dosages which are relatively close to each other, is a novel way of conducting Phase II studies.
For the 105 patients who were originally given 30 or 45 μg, new groups were created by utilizing multiple weight cut-offs in increments of 0.5 kg. For example, one new group had the weight cut-off at 59 kg, meaning that every patient from the original low dose (30 μg) group who weighed less than 59 kg and every patient who weighed more than 59 kg from the original high dose (45 μg) group formed a new cohort. This new cohort represents a dose/weight cut-off of 59 kg, a group in which patients weighing less than 59 kg receive the low dose (30 μg) and patients weighing more than 59 kg receive the high dose (45 μg). Another example can be illustrated using a weight cutoff of 68 kg. Such a group would include all those patients who weigh less than 68 kg and who originally received the low dose (30 μg) as well as all those patients who weigh more than 68 kg and who originally received the high dose (45 μg). By using this method, over 100 separate cohorts were created by altering the dose/weight cut-off in increments of 0.5 kg. A summary of the data generated by these new dose/weight cut-off cohorts, using 68 kg and 59 kg as the dose/weight cut-off, is shown in the table below.
The table above illustrates the actual clinical profile obtained for two dose/weight cutoffs (59 kg which produces a higher exposure profile since more patients receive the higher dose and 68 kg in which more patients receive the lower dose). […] One problem with simple subgroup analysis is that endpoints with a small number of events can skew the observed profile because of large changes in incidence when one of these events moves from one side of the weight cutoff to the other. Therefore, the dose/weight cutoff methodology was applied systematically to the data from the 30 and 45 μg dose groups starting at the lowest weight patient in the study (corresponds to the 45 μg profile because everyone receives the high dose) and increasing the cutoff by 0.5 kg increments through 100 kg (corresponding to the 30 μg profile because everyone receives the low dose). The multiple cutoff profiles thus obtained when graphed can then smooth out the effect of individual events as illustrated for the effect on hypercalcemia. The effect of weight cutoff on clinical profile can then be modeled to eliminate the skewing effects of individual data points as illustrated in FIG. 37-40. This approach has been applied to primary and secondary endpoints in the study.
An important benefit of this modeling is that it is possible to project a clinical profile for a specific weight cutoff/dose exposure window with a high degree of accuracy since the effect of individual events is eliminated. The anticipated hypercalcemia and lumbar spine BMD profile for a 68 kg cutoff is illustrated in the table below, which compares the modeled hypercalcemia and lumbar spine BMD changes and the actual Phase II data for the 68 kg weight cutoff. It will also be possible to model the effects of even narrower exposure windows by using multiple dose cutoffs and different doses.

[3] = system: post-menopausal women with low bone mineral density; assay: Phase II clinical study of subcutaneous Ostabolin-C in post-menopausal women with low BMD (BMD, bone markers, serum calcium, side effects)
From the text: A four month Phase II clinical study was undertaken to investigate the safety, tolerability and efficacy of Ostabolin-C™ in post-menopausal women with low bone mineral density (BMD). […] The clinical protocol is a 16-week phase II randomized, double-blind, placebo-controlled, parallel group, dose finding study to investigate the safety, tolerability and efficacy of Ostabolin-C™ in post-menopausal women with low bone mineral density (BMD). In this study, 261 patients underwent four months of daily dosing of placebo and four active groups. The active groups included daily administration of Ostabolin-C™ in doses of 7.5, 15, 30, and 45 μg. Ostabolin-C™ is formulated as a clear, colorless liquid provided in pre-filled syringes and injected subcutaneously (SC). Subjects self-administer SC 0.1 mL injections of their assigned dose of Ostabolin-C™ 7.5, 15, 30, and 45 μg or placebo daily for 16 weeks in rotating quadrants of the abdomen. The subjects were post-menopausal women (for at least 5 years) with moderate osteoporosis.
The key endpoints for the study include change in mean BMD at the lumbar spine, as assessed by dual energy x-ray absorptiometry (DEXA), and measured by change from the Baseline visit. The Baseline visit is the first visit of the patient, before undergoing any treatment. Secondary efficacy endpoints include the following, as measured by change from Baseline visit:
DEXA: Bone formation and resorption markers: • Mean femoral neck BMD • Serum osteocalcin • Mean trochanter BMD • Serum amino terminal pro-peptide of type 1 pro-collagen (P1NP) • Mean total hip BMD • Mean radial BMD (distal and midshaft) • Bone specific alkaline phosphatase (BSAP) • Bone mineral content (BMC) • Serum C-telopeptide (CTx) • Bone area • Serum N-telopeptide (NTx)

rats = assay: Rat oncogenicity study, 104 weeks subcutaneous; format: in vivo; conditions: 0.5, 5, 30, and 50 μg/kg/day SC
Method: Prior art PTHs cause osteosarcomas in animals if administered over a course of two years. The PTH peptides of the present invention, including Ostabolin-C™ and PTH 1-30, are administered subcutaneously to rats for 104 weeks at doses of 0.5, 5, 30, and 50 μg/kg/day. The test article is administered subcutaneously. […] This difference could be due to the different amino acids sequences and/or to the different signalling pathways activated by the PTH molecules.

Molecule: CC[C@H](C)[C@H](NC(=O)[C@H](CCC(=O)O)NC(=O)[C@H](CO)NC(=O)[C@@H](NC(=O)[C@@H](N)CO)C(C)C)C(=O)N[C@@H](CCC(N)=O)C(=O)N[C@@H](CC(C)C)C(=O)N[C@@H](CCSC)C(=O)N[C@@H](Cc1c[nH]cn1)C(=O)N[C@@H](CC(N)=O)C(=O)N[C@@H](CC(C)C)C(=O)NCC(=O)N[C@@H](CCCCN)C(=O)N[C@@H](Cc1c[nH]cn1)C(=O)N[C@@H](CC(C)C)C(=O)N[C@@H](CC(N)=O)C(=O)N[C@@H](CO)C(=O)N[C@@H](CCSC)C(=O)N[C@@H](CCC(=O)O)C(=O)N[C@@H](CCCNC(=N)N)C(=O)N[C@H](C(=O)N[C@H]1CCC(=O)NCCCC[C@@H](C(=O)N[C@@H](CC(C)C)C(=O)N[C@@H](CC(C)C)C(=O)N[C@@H](CCC(N)=O)C(=O)N[C@@H](CC(=O)O)C(=O)N[C@H](C(N)=O)C(C)C)NC(=O)[C@H](CCCNC(=N)N)NC(=O)[C@H](CC(C)C)NC(=O)[C@H](Cc2c[nH]c3ccccc23)NC1=O)C(C)C [Ostabolin-C, [Leu^27]cyclo[Glu^22-Lys^26]-PTH-(1-31)-NH2] (H-SVSEIQLMHNLGKHLNSMERVEWLRKLLQDV-NH2; lactam 22-26)
- Bone mass (DXA, QCT) at lumbar spine, femur and tibia ([1]; 2, 10, 25 μg/kg SC daily, 52 weeks): increased
- osteoclast surface ([1]; 52 weeks): significant reduction
- Tibial cancellous bone volume increase compared to controls ([1]; all treated groups (2, 10, 25 μg/kg SC daily, 52 weeks)): more than 50%
- CTx ([2]; 59 kg cut): 57.5
- FN-BMD ([2]; 59 kg cut): 1.5
- LS-BMD 3% ([2]; 59 kg cut): 80.8
- LS-BMD 6% ([2]; 59 kg cut): 28.8
- P1NP ([2]; 59 kg cut): 143.5
- TH-BMD ([2]; 59 kg cut): 0.69
- Mean LS-BMD ([2]; 59 kg cut (30 μg below, 45 μg above)): 4.95
- CTx ([2]; 68 kg cut): 32.1
- FN-BMD ([2]; 68 kg cut): 0.29
- LS-BMD 3% ([2]; 68 kg cut): 78.0
- LS-BMD 6% ([2]; 68 kg cut): 29.3
- P1NP ([2]; 68 kg cut): 132.1
- TH-BMD ([2]; 68 kg cut): 0.40
- Mean LS-BMD ([2]; 68 kg cut (30 μg below, 45 μg above)): 4.65
- LS-BMD 3% ([2]; 68 kg cutoff, modeled): 76.5
- Mean LS-BMD ([2]; 68 kg cutoff, modeled): 4.57
- bone resorption stimulation as % of expected effect of 20 μg Forteo ([3]; 30 μg): approximately 50%
- CTx ([3]; 30 μg (4 months)): 1400 pM/L
- FN-BMD (%) ([3]; 30 μg (4 months)): −0.05%
- LS-BMD (%) ([3]; 30 μg (4 months)): 3.6%
- LS-BMD (%), subset with LS-BMD T score < −2.5 ([3]; 30 μg (4 months)): 4.51%
- P1NP ([3]; 30 μg (4 months)): 50.0 µg/L
- TH-BMD (%) ([3]; 30 μg (4 months)): 0.06%
- CTx ([3]; 30 ug, 4 months): 30.6
- FN-BMD ([3]; 30 ug, 4 months): −0.06
- LS-BMD 3% ([3]; 30 ug, 4 months): 59.6
- LS-BMD 6% ([3]; 30 ug, 4 months): 19.1
- Mean LS-BMD ([3]; 30 ug, 4 months): 3.72
- P1NP ([3]; 30 ug, 4 months): 117.2
- TH-BMD ([3]; 30 ug, 4 months): 0.07
- BMD in the lumbar spine ([3]; 45 μg): increase in BMD
- CTx ([3]; 45 μg (4 months)): 2900 pM/L
- FN-BMD (%) ([3]; 45 μg (4 months)): 2.75%
- LS-BMD (%) ([3]; 45 μg (4 months)): 5.2%
- LS-BMD (%), subset with LS-BMD T score < −2.5 ([3]; 45 μg (4 months)): 5.9%
- P1NP ([3]; 45 μg (4 months)): 79.5 µg/L
- TH-BMD (%) ([3]; 45 μg (4 months)): 1.45%
- Mean % Change In Femoral Neck (BMD) ([3]; 45 μg For 15 Weeks): 2.75%
- Mean % Change In Total Hip (BMD) ([3]; 45 μg For 15 Weeks): 1.44%
- Mean % Change In Trochanter (BMD) ([3]; 45 μg For 15 Weeks): 2.24%
- CTx ([3]; 45 ug, 4 months): 60.3
- FN-BMD ([3]; 45 ug, 4 months): 3.0
- LS-BMD 3% ([3]; 45 ug, 4 months): 79.5
- LS-BMD 6% ([3]; 45 ug, 4 months): 36.4
- Mean LS-BMD ([3]; 45 ug, 4 months): 5.59
- P1NP ([3]; 45 ug, 4 months): 160.5
- TH-BMD ([3]; 45 ug, 4 months): 1.6
- cortical BMD in distal and mid-shaft radius compared to placebo and Forteo ([3]; 7.5, 15, and 30 μg): increases cortical BMD
- lumbar spine BMD ([3]; 7.5, 15, and 30 μg daily, 15 weeks): increase in lumbar spine BMD
- hip, femoral neck, and trochanter BMD ([3]; low doses, 15 weeks): mild BMD increase

Molecule: PTH(1-30) (SVSEIQLMHNLGKHLNSMERVEWLRKKLQD; Parathyroid hormone; UniProt P01270 32-61, looked up, fragment) [PTH 1-30]
- incidence of osteosarcomas compared to prior art PTH peptides (rats): lower incidences of osteosarcomas
